# Laboratory results as given in ChEMBL document CHEMBL1201862, “PubChem BioAssay data set” (2004).
#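 These data come from cells grown in 96-well plates and exposed to compound for 48 hours at five concentrations. At the GI50, growth is halved.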 Activity calls are given as the source filed them. Rule as the data show it: active = GI50 up to about 1.1 µM and inactive = higher.
# Legend:
# Experiment in all cases: NCI-60 cell line screen, 48 h
# ACHN = system: ACHN
# COLO 205 = system: COLO 205
# HCC 2998 = system: HCC 2998
# HCT-116 = system: HCT-116
# HOP-62 = system: HOP-62
# IGROV-1 = system: IGROV-1
# M14 = system: M14
# MDA-MB-231 = system: MDA-MB-231
# MDA-MB-435 = system: MDA-MB-435
# MOLT-4 = system: MOLT-4
# NCI-H460 = system: NCI-H460
# OVCAR-8 = system: OVCAR-8
# RPMI-8226 = system: RPMI-8226
# SK-MEL-2 = system: SK-MEL-2
# SK-MEL-5 = system: SK-MEL-5
# SN12C = system: SN12C
# SW-620 = system: SW-620
# T47D = system: T47D
# UACC-62 = system: UACC-62
# UO-31 = system: UO-31
Structure (SMILES),GI50 (ACHN),GI50 (COLO 205),GI50 (HCC 2998),GI50 (HCT-116),GI50 (HOP-62),GI50 (IGROV-1),GI50 (M14),GI50 (MDA-MB-231),GI50 (MDA-MB-435),GI50 (MOLT-4),GI50 (NCI-H460),GI50 (OVCAR-8),GI50 (RPMI-8226),GI50 (SK-MEL-2),GI50 (SK-MEL-5),GI50 (SN12C),GI50 (SW-620),GI50 (T47D),GI50 (UACC-62),GI50 (UO-31)
CNC1C(O)C(NC)C2OC3(O)C(=O)CC(C)OC3OC2C1O (stereo not given),> 100 µM (inactive),> 100 µM (inactive),> 100 µM (inactive),> 100 µM (inactive),> 100 µM (inactive),> 100 µM (inactive),> 100 µM (inactive),> 100 µM (inactive),> 100 µM (inactive),> 100 µM (inactive),> 100 µM (inactive),> 100 µM (inactive),> 100 µM (inactive),> 100 µM (inactive),> 100 µM (inactive),> 100 µM (inactive),> 100 µM (inactive),> 100 µM (inactive),> 100 µM (inactive),> 100 µM (inactive)
CN1C(=O)c2ccccc2C(O)(c2ccccc2)C1(O)c1ccccc1 (stereo not given),> 100 µM (inactive),> 100 µM (inactive),87.9 µM (inactive),95.3 µM (inactive),> 100 µM (inactive),58.5 µM (inactive),> 100 µM (inactive),> 100 µM (inactive),> 100 µM (inactive),48.1 µM (inactive),19.2 µM (inactive),> 100 µM (inactive),56.4 µM (inactive),> 100 µM (inactive),74.6 µM (inactive),> 100 µM (inactive),> 100 µM (inactive),61.2 µM (inactive),64.4 µM (inactive),32.5 µM (inactive)
CC(C)NC(=O)OCc1c(COC(=O)NC(C)C)c(-c2ccc[n+](COC(=O)C(C)C)c2)n2c1CCC2,29.1 µM (inactive),> 72.3 µM (inactive),> 100 µM (inactive),54.7 µM (inactive),> 63.5 µM (inactive),> 67.6 µM (inactive),61.5 µM (inactive),> 100 µM (inactive),> 100 µM (inactive),13.6 µM (inactive),21.6 µM (inactive),> 72.8 µM (inactive),55.2 µM (inactive),> 83.4 µM (inactive),> 94.4 µM (inactive),37.5 µM (inactive),55.3 µM (inactive),> 81.3 µM (inactive),26.9 µM (inactive),52.4 µM (inactive)
COc1ccc([N+](=O)[O-])c2c(NCC(O)CO)ccnc12 (stereo not given),43.8 µM (inactive),22.5 µM (inactive),32.2 µM (inactive),28.9 µM (inactive),38.6 µM (inactive),27.3 µM (inactive),52.7 µM (inactive),88.1 µM (inactive),> 100 µM (inactive),38.9 µM (inactive),16.9 µM (inactive),50.4 µM (inactive),62.7 µM (inactive),23.1 µM (inactive),23 µM (inactive),77.8 µM (inactive),42.1 µM (inactive),36.4 µM (inactive),22 µM (inactive),63.1 µM (inactive)
CCN(CC)CCn1ccc(=O)c2cc3c(=O)ccn(CCN(CC)CC)c3c(C)c21,4.02 µM (inactive),3.87 µM (inactive),1.44 µM (inactive),1.82 µM (inactive),7.38 µM (inactive),7.28 µM (inactive),9.38 µM (inactive),5.27 µM (inactive),4.65 µM (inactive),0.525 µM (active),1.31 µM (inactive),2.87 µM (inactive),2.1 µM (inactive),11.6 µM (inactive),15.7 µM (inactive),5.65 µM (inactive),1.53 µM (inactive),25.1 µM (inactive),15.4 µM (inactive),5.07 µM (inactive)
CC(=O)C1=C(C)N2C(=NC3=C(CCc4ccccc43)C2c2ccc(Cl)cc2)S1 (stereo not given),> 100 µM (inactive),21.4 µM (inactive),5.69 µM (inactive),5.85 µM (inactive),> 100 µM (inactive),12.3 µM (inactive),> 40.4 µM (inactive),> 100 µM (inactive),> 43.1 µM (inactive),3.8 µM (inactive),16.1 µM (inactive),> 100 µM (inactive),2.12 µM (inactive),> 45 µM (inactive),26.1 µM (inactive),> 100 µM (inactive),> 33.3 µM (inactive),5.53 µM (inactive),58.7 µM (inactive),> 53.7 µM (inactive)
CCOC(=O)/C=C(\C(=O)OCC)n1cc(C)c(=O)n(Cc2cn(CCCCOC(C)=O)nn2)c1=O,4.28 µM (inactive),2.98 µM (inactive),18.3 µM (inactive),11.3 µM (inactive),18.4 µM (inactive),13.6 µM (inactive),11.9 µM (inactive),15.7 µM (inactive),9.95 µM (inactive),2.44 µM (inactive),8.18 µM (inactive),8.02 µM (inactive),7.35 µM (inactive),15.9 µM (inactive),17.1 µM (inactive),20.7 µM (inactive),3.47 µM (inactive),11.6 µM (inactive),15.9 µM (inactive),14.5 µM (inactive)
N#Cc1nc(C#N)c(N)[nH]1,> 100 µM (inactive),> 100 µM (inactive),> 100 µM (inactive),> 100 µM (inactive),> 100 µM (inactive),> 100 µM (inactive),> 100 µM (inactive),> 100 µM (inactive),> 100 µM (inactive),> 100 µM (inactive),> 100 µM (inactive),> 100 µM (inactive),> 100 µM (inactive),> 100 µM (inactive),> 100 µM (inactive),> 100 µM (inactive),> 100 µM (inactive),> 100 µM (inactive),> 100 µM (inactive),> 100 µM (inactive)
CC(=O)Nc1cc2cc(NS(=O)(=O)c3cc(C(F)(F)F)cc(C(F)(F)F)c3)ccc2oc1=O,> 100 µM (inactive),> 100 µM (inactive),> 100 µM (inactive),> 100 µM (inactive),> 100 µM (inactive),> 100 µM (inactive),> 100 µM (inactive),> 100 µM (inactive),> 100 µM (inactive),> 100 µM (inactive),> 100 µM (inactive),34.3 µM (inactive),> 100 µM (inactive),> 100 µM (inactive),> 100 µM (inactive),> 100 µM (inactive),> 100 µM (inactive),> 100 µM (inactive),> 100 µM (inactive),> 100 µM (inactive)
CN(C)CCn1c(=O)c2ccc(NCCNCCO)c3c(=O)c4cc(O)ccc4n(c1=O)c23,0.571 µM (active),0.634 µM (active),0.661 µM (active),0.664 µM (active),0.483 µM (active),1.05 µM (active),2.69 µM (inactive),0.586 µM (active),2.39 µM (inactive),0.229 µM (active),0.655 µM (active),1.12 µM (inactive),1.18 µM (inactive),1.9 µM (inactive),1.49 µM (inactive),0.308 µM (active),0.532 µM (active),2.31 µM (inactive),1.47 µM (inactive),3.05 µM (inactive)
